Results on one compound are retold here after US7960365B2, “Compounds with medicinal effects due to interaction with the glucocorticoid receptor” (N.V. Organon, priority 2006, dated 2011).

pEC50: −log10 of the molar value.

By pEC50 is commonly meant −log10 of the EC50, conventionally taken in molar units.

The target in the experiment is T1, recombinant human-GR (GR) (Homo sapiens, UniProt P04150).
T1 construct: purchased PanVera
T1 sequence (P04150 1-777): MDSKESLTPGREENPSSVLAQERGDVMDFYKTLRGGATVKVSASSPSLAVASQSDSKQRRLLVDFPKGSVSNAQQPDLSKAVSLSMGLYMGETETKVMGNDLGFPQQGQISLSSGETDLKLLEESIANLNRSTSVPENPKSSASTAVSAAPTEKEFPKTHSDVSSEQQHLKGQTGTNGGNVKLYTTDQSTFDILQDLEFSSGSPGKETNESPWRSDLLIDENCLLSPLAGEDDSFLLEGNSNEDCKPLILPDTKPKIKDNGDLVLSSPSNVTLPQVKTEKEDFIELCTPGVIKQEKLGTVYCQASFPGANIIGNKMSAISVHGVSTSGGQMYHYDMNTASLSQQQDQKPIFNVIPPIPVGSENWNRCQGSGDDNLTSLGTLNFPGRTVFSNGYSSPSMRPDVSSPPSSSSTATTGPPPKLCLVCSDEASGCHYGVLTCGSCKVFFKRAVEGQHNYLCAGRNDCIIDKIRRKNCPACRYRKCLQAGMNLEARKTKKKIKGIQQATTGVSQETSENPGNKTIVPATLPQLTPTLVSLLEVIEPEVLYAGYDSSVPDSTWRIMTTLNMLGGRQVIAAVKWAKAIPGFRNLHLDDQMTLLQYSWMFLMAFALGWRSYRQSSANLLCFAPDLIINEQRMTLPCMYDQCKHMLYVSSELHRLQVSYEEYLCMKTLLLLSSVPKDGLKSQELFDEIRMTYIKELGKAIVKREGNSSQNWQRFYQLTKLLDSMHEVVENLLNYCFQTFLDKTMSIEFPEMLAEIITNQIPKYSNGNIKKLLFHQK
The experiment can be described thus: Glucocorticoid Receptor Competitor Assay kit (PanVera), fluorescence polarisation competition binding. Particulars: fluormone GS1 1 nM, GR 4 nM, 90 minutes at room temperature. How it is done: The affinity of compounds was tested using a Glucocorticoid Receptor Competitor Assay kit (PanVera®). Components of the kit were thawed from −80° C. on ice (Fluormone GS1, recombinant human-GR (GR)) or at room temperature (GR screening buffer, stabilising peptide and DTT). 10 mM test compounds were manually diluted to 20 μM then serially diluted to a final concentration range of 10 μM to 0.1 nM using the BioMek 2000 (Beckman-Coulter) into a black walled 384 welled plate (Matrix technologies). In the following order: fluormone GS1 (1 nM final concentration) is added to all wells excluding the buffer control wells, GR (4 nM final concentration) is added to all wells except minimum and buffer control wells, cortisol (10 μM final concentration) is added to fluormone GS1 control wells only, buffer is added to all wells to a final volume of 40 μl. The plate is covered and incubated at room temperature with agitation for 90 minutes. Readings were taken using the Analyst (LJL) in fluorescence polarisation reading mode. The MilliP ratio is calculated from cps readings obtained in parallel and perpendicular mode. The percent effect of the bound ligand is calculated at each concentration and the dose response curves plotted allowing the EC50 to be calculated. […]

Turning to `CC#C[C@]1(O)CC[C@H]2[C@@H]3CCC4=CC(=O)CCC4=C3[C@@H](c3ccc4c(c3)OCO4)C[C@@]21C` [(11beta, 17beta)-11-(1,3-benzodioxol-5-yl)-17-hydroxy-17-(1-propynyl)estra-4,9-dien-3-one], the negative-log EC50 (pEC50) was 8.00.
